Values of other authors as cited in publication PMC4340357 (Journal of Chemical Information and Modeling, 2015).

Biological target: C. perfringens neuraminidase
Conditions: read-out: IC50 against C. perfringens neuraminidase

CC(C)=CCc1c(O)c(CC=C(C)C)c2oc3c(O)ccc(O)c3c(=O)c2c1O [Gartanin]
IC50: 2900 ± 300 nM
